Assay results: ChEMBL document CHEMBL1137891, “5-Carboxamido-1,3,2-dioxaphosphorinanes, potent inhibitors of MTP” (Bioorg Med Chem Lett, 2004)

Experiments:
HepG2 = experiment: inhibitory activity against secretion of lipoproteins apoB and apoA1 from human HepG2 cell lines; assay type: functional; settings: read-out: ED50 (the source's name)
Cricetinae gen. sp. [1] = experiment: Percentage change in serum HDL cholesterol in male hamster after 3-day treatment at 15 mpk; assay type: functional
[2] = molecular target: T1, Microsomal triglyceride transfer protein large subunit (Homo sapiens, UniProt P55157); experiment: In vitro inhibitory concentration against human Microsomal triglyceride transfer protein; assay type: functional
T1 sequence (P55157 whole entry): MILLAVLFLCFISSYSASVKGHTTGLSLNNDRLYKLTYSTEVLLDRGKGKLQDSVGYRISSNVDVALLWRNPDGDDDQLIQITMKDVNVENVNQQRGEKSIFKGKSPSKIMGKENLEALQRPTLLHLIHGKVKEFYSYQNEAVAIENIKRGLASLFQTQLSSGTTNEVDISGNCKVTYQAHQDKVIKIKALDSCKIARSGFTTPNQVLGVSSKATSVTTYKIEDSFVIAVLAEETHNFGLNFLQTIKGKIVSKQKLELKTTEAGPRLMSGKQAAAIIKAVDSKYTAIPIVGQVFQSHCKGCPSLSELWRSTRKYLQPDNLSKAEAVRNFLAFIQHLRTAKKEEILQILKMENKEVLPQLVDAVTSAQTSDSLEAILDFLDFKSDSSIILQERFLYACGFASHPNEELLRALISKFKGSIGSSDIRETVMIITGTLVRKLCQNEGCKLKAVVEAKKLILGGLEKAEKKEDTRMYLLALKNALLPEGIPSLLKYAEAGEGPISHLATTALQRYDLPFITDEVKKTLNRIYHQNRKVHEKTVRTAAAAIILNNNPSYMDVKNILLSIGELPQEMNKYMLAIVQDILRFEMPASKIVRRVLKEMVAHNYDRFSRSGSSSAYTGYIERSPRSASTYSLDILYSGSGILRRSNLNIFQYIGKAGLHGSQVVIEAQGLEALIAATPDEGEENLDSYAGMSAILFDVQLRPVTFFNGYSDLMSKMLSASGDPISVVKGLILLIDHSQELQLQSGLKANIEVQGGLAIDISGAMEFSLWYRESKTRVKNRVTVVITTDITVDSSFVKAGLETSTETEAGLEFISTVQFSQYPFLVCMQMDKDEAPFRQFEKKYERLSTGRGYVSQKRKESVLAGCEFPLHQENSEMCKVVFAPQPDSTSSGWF

Cricetinae gen. sp. [3] = experiment: Concentration required for change in serum HDL cholesterol in male hamster after 3-day treatment; assay type: functional, Cricetulus griseus; settings: 72 h
Mesocricetus auratus = organism: Mesocricetus auratus; experiment: Percentage change in serum HDL cholesterol in male hamster after 3-day treatment at 30 mpk
[4] = molecular target: T1, Microsomal triglyceride transfer protein large subunit; experiment: In vitro inhibition concentration required against triglyceride transfer of human Microsomal triglyceride transfer protein; assay type: functional; settings: read-out: I50
Cricetinae gen. sp. [5] = experiment: Percentage change in serum HDL cholesterol in male hamster after 3-day treatment at 20 mpk; assay type: functional, Cricetulus griseus

EC50 (HepG2; Homo sapiens, HepG2)	IC50 [2]	SMILES	Activity (Cricetinae gen. sp. [1])	Activity (Mesocricetus auratus)	also measured
0.9 nM	5 nM	O=C(N[C@H]1CC[N@+]([O-])(CCCCC2(C(=O)NCC(F)(F)F)c3ccccc3-c3ccccc32)CC1)c1ccccc1-c1ccc(C(F)(F)F)cc1	-77%		
7.5 nM	9 nM	O=C(NC1COP(=O)(CCCCC2(C(=O)NCC(F)(F)F)c3ccccc3-c3ccccc32)OC1)c1ccccc1-c1nc2ccccc2s1 (stereo not drawn)	-76%		ED50 (Cricetinae gen. sp. [3]): 4 mg/kg
	12 nM	O=C(NC1COP(=O)(CCCCC2(C(=O)NCC(F)(F)F)c3ccccc3-c3ccccc32)OC1)c1ccccc1N1CCOCC1 (stereo not drawn)	-3%		
40 nM	14 nM	O=C(NC1COP(=O)(CCCCC2(C(=O)NCC(F)(F)F)c3ccccc3-c3ccccc32)OC1)OCc1ccccc1 (stereo not drawn)			
7 nM	22 nM	CCCCOP(=O)(CCCCC1(C(=O)NCC(F)(F)F)c2ccccc2-c2ccccc21)OCCCC		-5%	
		O=C(NC1COP(=O)(CCCCC2(C(=O)NCC(F)(F)F)c3ccccc3-c3ccccc32)OC1)OCc1ccccc1 (cis isomer)			IC50 [4]: 210 nM
	44 nM	O=C(NC1COP(=O)(CCCCC2(C(=O)NCC(F)(F)F)c3ccccc3-c3ccccc32)OC1)c1ccccc1-c1ccc(C(F)(F)F)cc1 (cis isomer)			Activity (Cricetinae gen. sp. [5]): -4%; EC50 (HepG2): 18 nM
	7 nM	O=C(NC1COP(=O)(CCCCC2(C(=O)NCC(F)(F)F)c3ccccc3-c3ccccc32)OC1)c1ccccc1-c1ccc(C(F)(F)F)cc1 (stereo in doubt; 3a)		-73%	EC50 (HepG2): 0.65 nM; ED50 (Cricetinae gen. sp. [3]): 3.3 mg/kg
79 nM	< 10 nM	O=C(NC1COP(=O)(CCCCC2(C(=O)NCC(F)(F)F)c3ccccc3-c3ccccc32)OC1)c1ccccc1-c1ccccn1 (trans isomer)	-19%		
23 nM	11 nM	O=C(NC1COP(=O)(CCCCC2(C(=O)NCC(F)(F)F)c3ccccc3-c3ccccc32)OC1)c1ccccc1 (trans isomer)	-12%		
	3 nM	O=C(NC1COP(=O)(CCCCC2(C(=O)NCC(F)(F)F)c3ccccc3-c3ccccc32)OC1)c1ccccc1-c1nc2ccccc2o1 (trans isomer)		-13%	
0.8 nM		O=C(NC1CCN(CCCCC2(C(=O)NCC(F)(F)F)c3ccccc3-c3ccccc32)CC1)c1ccccc1-c1ccc(C(F)(F)F)cc1 [LOMITAPIDE]		-92%	ED50 (Cricetinae gen. sp. [3]): 2 mg/kg
